Molecular target: GHS-R (Homo sapiens, UniProt Q92847)
Experiment: GHS-R antagonist activity (Ki) in a cell based assay
Summary of the method: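 Transfected COS-7 cells were labelled 24 h with [^3H]-myo-inositol and preincubated 30 min at 37 °C in HEPES buffer pH 7.4 with 10 mM LiCl, optionally with 1 U/ml adenosine deaminase. Compound was applied for 45 min at 37 °C. [^3H]-inositol phosphates were extracted with perchloric acid and isolated by anion-exchange resin.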

Sequence of GHS-R (Q92847 whole entry, species assumed): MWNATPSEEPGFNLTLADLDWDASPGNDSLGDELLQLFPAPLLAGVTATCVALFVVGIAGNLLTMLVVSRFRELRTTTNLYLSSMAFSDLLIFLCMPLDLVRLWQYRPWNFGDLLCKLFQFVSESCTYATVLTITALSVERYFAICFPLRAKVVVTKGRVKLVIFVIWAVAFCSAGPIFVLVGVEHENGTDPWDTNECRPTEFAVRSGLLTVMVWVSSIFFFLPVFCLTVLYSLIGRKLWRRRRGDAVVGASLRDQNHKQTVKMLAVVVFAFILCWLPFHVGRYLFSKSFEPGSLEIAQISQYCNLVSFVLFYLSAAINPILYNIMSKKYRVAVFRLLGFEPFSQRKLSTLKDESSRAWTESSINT

CCN(CC)CCCS(=O)(=O)N[C@H](CCc1ccccc1)c1nc(-c2ccc3c(c2)OCCO3)n[nH]1 [Compound 47, 3-Diethylamino-propane-1-sulfonic acid {(R)-1-[5-(2,3-dihydro-benzo[1,4]dioxin-6-yl)-2H-[1,2,4]triazol-3-yl]-3-phenyl-propyl}-amide]
Ki: < 100 nM

CCN(CC)CCCS(=O)(=O)N[C@H](CCc1ccccc1)c1nc(-c2cnccc2C)no1 [Compound 83, 3-Diethylamino-propane-1-sulfonic acid {(R)-1-[3-(4-methyl-pyridin-3-yl)-[1,2,4]oxadiazol-5-yl]-3-phenyl-propyl}-amide]
Ki: 100 to 500 nM

CCN(CC)CCS(=O)(=O)N[C@H](CCc1ccccc1)c1nc(Cc2ccccc2Br)no1 [Compound 93, 2-Diethylamino-ethanesulfonic acid {(R)-1-[3-(2-bromo-benzyl)-[1,2,4]oxadiazol-5-yl]-3-phenyl-propyl}-amide]
Ki: < 100 nM

CCN(CC)CCCS(=O)(=O)N[C@H](CCc1ccccc1)c1nc(-c2cccc(Cl)c2)n[nH]1 [Compound 70, 3-Diethylamino-propane-1-sulfonic acid {(R)-1-[5-(3-chloro-phenyl)-2H-[1,2,4]triazol-3-yl]-3-phenyl-propyl}-amide]
Ki: < 100 nM

CCN(CC)CCCS(=O)(=O)N[C@H](CCc1ccccc1)c1nc(-c2cn(C)cn2)n[nH]1 [Compound 131, 3-Diethylamino-propane-1-sulfonic acid {(R)-1-[5-(1-methyl-1H-imidazol-4-yl)-2H-[1,2,4]triazol-3-yl]-3-phenyl-propyl}-amide]
Ki: < 100 nM

CCN(CC)CCCS(=O)(=O)N[C@H](CCc1ccccc1)c1nc(Cc2ccc(OC)cc2)n[nH]1 [Compound 107, 3-Diethylamino-propane-1-sulfonic acid {(R)-1-[5-(4-methoxy-benzyl)-2H-[1,2,4]triazol-3-yl]-3-phenyl-propyl}-amide]
Ki: 100 to 500 nM

CCN(CC)CCCS(=O)(=O)N[C@H](CCc1ccccc1)c1nc(-c2ccc(Br)cc2C)no1 [Compound 67, 3-Diethylamino-propane-1-sulfonic acid {(R)-1-[3-(4-bromo-2-methyl-phenyl)-[1,2,4]oxadiazol-5-yl]-3-phenyl-propyl}-amide]
Ki: 100 to 500 nM

CCN(CC)CCCS(=O)(=O)N[C@@H](CC(C)C)c1nc(-c2ccc(OC)cc2)n[nH]1 [Compound 159, (S)-3-Diethylamino-propane-1-sulfonic acid {1-[5-(4-methoxy-phenyl)-2H-[1,2,4]triazol-3-yl]-3-methyl-butyl}-amide]
Ki: 100 to 500 nM

CCN(CC)CCCS(=O)(=O)N[C@H](CCc1ccccc1)c1nc(-c2ccc(F)cc2F)n[nH]1 [Compound 96, 3-Diethylamino-propane-1-sulfonic acid {(R)-1-[5-(2,4-difluoro-phenyl)-2H-[1,2,4]triazol-3-yl]-3-phenyl-propyl}-amide]
Ki: < 100 nM

CCN(CC)CCCS(=O)(=O)N[C@H](CCc1ccccc1)c1nc(Cc2ccc(F)c(F)c2)n[nH]1 [Compound 56, 3-Diethylamino-propane-1-sulfonic acid {(R)-1-[5-(3,4-difluoro-benzyl)-2H-[1,2,4]triazol-3-yl]-3-phenyl-propyl}-amide]
Ki: 100 to 500 nM

CCN(CC)CCCS(=O)(=O)NC(C)(C)c1nc(Cc2ccc(Br)cc2)no1 [Compound 154, 3-Diethylamino-propane-1-sulfonic acid {1-[3-(4-bromo-benzyl)-[1,2,4]oxadiazol-5-yl]-1-methyl-ethyl}-amide]
Ki: < 100 nM

CCN(CC)CCCS(=O)(=O)N[C@H](CCc1ccccc1)c1nc(-c2ccc(OC)cc2)no1 [Compound 69, 3-Diethylamino-propane-1-sulfonic acid {(R)-1-[3-(4-methoxy-phenyl)-[1,2,4]oxadiazol-5-yl]-3-phenyl-propyl}-amide]
Ki: < 100 nM

CCN(CC)CCS(=O)(=O)N[C@H](CCc1ccccc1)c1nc(-c2c(Cl)cccc2Cl)no1 [Compound 18, 2-Diethylamino-ethanesulfonic acid {(R)-1-[3-(2,6-dichloro-phenyl)-[1,2,4]oxadiazol-5-yl]-3-phenyl-propyl}-amide]
Ki: 100 to 500 nM

CCN(CC)CCCS(=O)(=O)NC(C)(C)c1nc(-c2ccc(OC)cc2)no1 [Compound 155, 3-Diethylamino-propane-1-sulfonic acid {1-[3-(4-methoxy-phenyl)-[1,2,4]oxadiazol-5-yl]-1-methyl-ethyl}-amide]
Ki: 100 to 500 nM

CCN(CC)CCCS(=O)(=O)N[C@H](CCc1ccccc1)c1nc(-c2ccc3sccc3c2)n[nH]1 [Compound 129, 3-Diethylamino-propane-1-sulfonic acid [(R)-1-(5-benzo[b]thiophen-5-yl-2H-[1,2,4]triazol-3-yl)-3-phenyl-propyl]-amide]
Ki: < 100 nM

CCN(CC)CCCS(=O)(=O)N[C@H](CCc1ccccc1)c1nc(-c2cccc(F)c2)n[nH]1 [Compound 15, 3-Diethylamino-propane-1-sulfonic acid {(R)-1-[5-(3-fluoro-phenyl)-2H-[1,2,4]triazol-3-yl]-3-phenyl-propyl}-amide]
Ki: < 100 nM

CCN(CC)CCCS(=O)(=O)N1CCC[C@H]1c1nc(Cc2ccc(Br)cc2)no1 [Compound 142, (S)-(3-{2-[3-(4-Bromo-benzyl)-[1,2,4]oxadiazol-5-yl]-pyrrolidine-1-sulfonyl}-propyl)-diethyl-amine]
Ki: 100 to 500 nM

CCN(CC)CCCS(=O)(=O)N[C@H](CCc1ccccc1)c1nc(-c2cccc(C#N)c2)n[nH]1 [Compound 50, 3-Diethylamino-propane-1-sulfonic acid {(R)-1-[5-(3-cyano-phenyl)-2H-[1,2,4]triazol-3-yl]-3-phenyl-propyl}-amide]
Ki: < 100 nM

CCN(CC)CCCS(=O)(=O)N[C@H](CCc1ccccc1)c1nc(-c2ccc(OC)nc2)n[nH]1 [Compound 138, 3-Diethylamino-propane-1-sulfonic acid {(R)-1-[5-(6-methoxy-pyridin-3-yl)-2H-[1,2,4]triazol-3-yl]-3-phenyl-propyl}-amide]
Ki: < 100 nM

CCN(CC)CCCS(=O)(=O)N[C@H](CCc1ccccc1)c1nc(Cc2ccc(OC)c(OC)c2)n[nH]1 [Compound 32, 3-Diethylamino-propane-1-sulfonic acid {(R)-1-[5-(3,4-dimethoxy-benzyl)-2H-[1,2,4]triazol-3-yl]-3-phenyl-propyl}-amide]
Ki: < 100 nM

CCN(CC)CCCS(=O)(=O)N[C@H](CCc1ccccc1)c1nc(Cc2ccc3c(c2)OCO3)no1 [Compound 55, 3-Diethylamino-propane-1-sulfonic acid [(R)-1-(3-benzo[1,3]dioxol-5-ylmethyl-[1,2,4]oxadiazol-5-yl)-3-phenyl-propyl]-amide]
Ki: < 100 nM

CCN(CC)CCCS(=O)(=O)N[C@H](CCc1ccccc1)c1nc(-c2csc(C)n2)n[nH]1 [Compound 137, 3-Diethylamino-propane-1-sulfonic acid {(R)-1-[5-(2-methyl-thiazol-4-yl)-2H-[1,2,4]triazol-3-yl]-3-phenyl-propyl}-amide]
Ki: < 100 nM

CCN(CC)CCCS(=O)(=O)N1CC[C@H]1c1nc(-c2ccc(OC)cc2)no1 [Compound 153, (S)-Diethyl-(3-{2-[3-(4-methoxy-phenyl)-[1,2,4]oxadiazol-5-yl]-azetidine-1-sulfonyl}-propyl)-amine]
Ki: < 100 nM

CCN(CC)CCS(=O)(=O)N[C@H](CCc1ccccc1)c1nc(CCOC)no1 [Compound 78, 2-Diethylamino-ethanesulfonic acid {(R)-1-[3-(2-methoxy-ethyl)-[1,2,4]oxadiazol-5-yl]-3-phenyl-propyl}-amide]
Ki: 500 to 1000 nM

— US7829589B2, “Sulfonamide compounds and uses thereof” (Elixir Pharmaceuticals, Inc., priority 2005, dated 2010)
